Experimental data taken from ChEMBL document CHEMBL1201862, “PubChem BioAssay data set” (2004).
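Where inhibition never reached the appropriate level, the endpoint shown equals the highest concentration tested. Otherwise, values were interpolated linearly from a five-concentration, 48-hour dose response in 96-well plates. GI50 is the concentration that inhibits growth by half.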 Active and inactive are the calls of the source. No stated cut-off is given here; in the data, active = GI50 up to about 1.1 µM and inactive = higher.

Key:
Experiment in all cases: growth of human tumour cells (NCI), 48 h
MDA-MB-435 = system: MDA-MB-435
NCI-H226 = system: NCI-H226
OVCAR-8 = system: OVCAR-8
NCI-H522 = system: NCI-H522
UO-31 = system: UO-31
RXF 393 = system: RXF 393
HT-29 = system: HT-29
A549 = system: A549
SNB-19 = system: SNB-19
U-251 = system: U-251
HCT-116 = system: HCT-116
SF-295 = system: SF-295
CAKI-1 = system: CAKI-1
RPMI-8226 = system: RPMI-8226
Hs-578T = system: Hs-578T
HCC 2998 = system: HCC 2998
MCF7 = system: MCF7
786-0 = system: 786-0
SK-OV-3 = system: SK-OV-3
SN12C = system: SN12C

Row | SMILES | GI50 (MDA-MB-435) | GI50 (NCI-H226) | GI50 (OVCAR-8) | GI50 (NCI-H522) | GI50 (UO-31) | GI50 (RXF 393) | GI50 (HT-29) | GI50 (A549) | GI50 (SNB-19) | GI50 (U-251) | GI50 (HCT-116) | GI50 (SF-295) | GI50 (CAKI-1) | GI50 (RPMI-8226) | GI50 (Hs-578T) | GI50 (HCC 2998) | GI50 (MCF7) | GI50 (786-0) | GI50 (SK-OV-3) | GI50 (SN12C)
1 | Oc1cc(-c2cccc(OC(F)(F)F)c2)nc2ccc(N3CCCC3)cc12 | < 0.0001 µM (active) | 0.000142 µM (active) | 0.000426 µM (active) | 0.000376 µM (active) | 0.000555 µM (active) | 0.000116 µM (active) | 0.000217 µM (active) | 0.0103 µM (active) | 0.00018 µM (active) | < 0.0001 µM (active) | 0.000121 µM (active) | < 0.0001 µM (active) | 0.01 µM (active) | 0.000261 µM (active) | 0.01 µM (active) | 0.000547 µM (active) | 0.0337 µM (active) | 0.00014 µM (active) | 0.000117 µM (active) | 0.00041 µM (active)
2 | C=CCSC1=N/C(=C\c2cccs2)C(=O)N1CC=C | 60.3 µM (inactive) | 44.2 µM (inactive) | 44.6 µM (inactive) | 49.4 µM (inactive) | 37.4 µM (inactive) | 16.7 µM (inactive) | 32.8 µM (inactive) | 33.7 µM (inactive) | > 100 µM (inactive) | 61.5 µM (inactive) | 32.7 µM (inactive) | 81.5 µM (inactive) | > 100 µM (inactive) | 21.9 µM (inactive) | > 100 µM (inactive) | 58.9 µM (inactive) | 27.3 µM (inactive) | 45.4 µM (inactive) | > 100 µM (inactive) | 53.1 µM (inactive)
3 | CC(C)C(=O)CC(Sc1ccc(N)cc1)c1ccccc1 (stereo not given) | 13.6 µM (inactive) | 46.5 µM (inactive) | 25.6 µM (inactive) | 15.8 µM (inactive) | 29.2 µM (inactive) | 25.9 µM (inactive) | 27.5 µM (inactive) | 28.1 µM (inactive) | 48.5 µM (inactive) | 16.6 µM (inactive) | 13.3 µM (inactive) | 25.6 µM (inactive) | 34.3 µM (inactive) | 17.4 µM (inactive) | 21.7 µM (inactive) | 24.7 µM (inactive) | 18.2 µM (inactive) | 28.8 µM (inactive) | 26.4 µM (inactive) | 28.1 µM (inactive)
4 | CC(C)OC(=O)C(NC(=O)C(CC(=O)OCc1ccccc1)NC(=O)OCc1ccccc1)NC(=O)C1C(C)(C)CCC1(C)C (stereo not given) | 23.8 µM (inactive) | 7.21 µM (inactive) | 2 µM (inactive) | 11.6 µM (inactive) | 4.84 µM (inactive) | 4.43 µM (inactive) | 3.58 µM (inactive) | 2.22 µM (inactive) | 4.29 µM (inactive) | 2.14 µM (inactive) | 3.61 µM (inactive) | 14.1 µM (inactive) | 9.98 µM (inactive) | 7.5 µM (inactive) | 6.98 µM (inactive) | 24.9 µM (inactive) | 14.9 µM (inactive) | 2.22 µM (inactive) | 4.18 µM (inactive) | 3.84 µM (inactive)
5 | O=C(c1ccccc1)c1cc[n+](C2=C([N-]S(=O)(=O)c3ccccc3)C(=O)c3ccccc3C2=O)cc1 | 1.72 µM (inactive) | 15.8 µM (inactive) | 13 µM (inactive) | 4.74 µM (inactive) | 11.7 µM (inactive) | 12.4 µM (inactive) | 14.4 µM (inactive) | 14.5 µM (inactive) | 13.8 µM (inactive) | 4.38 µM (inactive) | 11.3 µM (inactive) | 11.8 µM (inactive) | 2.36 µM (inactive) | 3.3 µM (inactive) | 3.66 µM (inactive) | 11.4 µM (inactive) | 8.79 µM (inactive) | 7.13 µM (inactive) | 15.4 µM (inactive) | 6.85 µM (inactive)
6 | CC(=O)NC1C(OCC(=O)NC(C)C(=O)NC(CCC(=O)NCCCCCNc2ccc([N+](=O)[O-])c3[nH]c4ccccc4c(=O)c23)C(N)=O)C(O)C(CO)OC1(C)OCc1ccccc1 (stereo not given) | > 50 µM (inactive) | > 50 µM (inactive) | > 50 µM (inactive) | > 50 µM (inactive) | > 50 µM (inactive) | 3.48 µM (inactive) | 38.6 µM (inactive) | > 50 µM (inactive) | 33.3 µM (inactive) | 39.3 µM (inactive) | 19.4 µM (inactive) | 45.4 µM (inactive) | > 50 µM (inactive) | 0.005 µM (active) | 19.5 µM (inactive) | > 50 µM (inactive) | > 50 µM (inactive) | 13 µM (inactive) | 39.1 µM (inactive) | 19.6 µM (inactive)
